From patent EP3064205A1, “Therapeutic use of isomeric forms of 2-(4-chlorophenyl)quinolin-4-yl)(piperidin-2-yl)methanol” (Glionova AB, priority 2015, dated 2016)
Where two headings read alike, the source gives them in different places.

Legend:
Experiment in all cases: 3D clonogenic assay (PDX)
Type in all cases: cell-based, human
SXFS 117 = settings: SXFS 117, Sarcoma Soft Tissue; for IC50: Homo sapiens
Protocol: (§1) The anti-tumor efficacy of S1 in the patient-derived tumor xenograft (PDX) tumor panel was assessed, where the efficacy of S1 in PDX tumor panel in the 96-well format, in 10 concentrations in duplicate was performed. Colony formation of tumor cell suspensions in a soft-agar matrix was observed and quantified. The output is IC50 values and dose response-relationships based on number of colonies in control and treatment wells, as identified by an automated image analysis algorithm. Stock solution of S1 was prepared in 100% DMSO at 10 mM concentration (stored at -20°C) and reused for each experiment. Compound final test concentrations: Dilution series ½ i.e.: 50µM, 15, 5, 1.5, 0.5, 0.15, 0.05, 0.015, 0.005 and 0.0015.
(§2) Tumor xenografts (also referred to as patient-derived tumor xenografts) were passaged as subcutaneous xenografts in NMRI nu/nu mice. Tumor xenograft were removed from mice under sterile conditions, mechanically disaggregated and subsequently incubated with an enzyme cocktail consisting of collagenase type IV (41 U/mL), DNase I (125 U/mL), hyaluronidase type III (100 U/mL) and dispase II (1.0 U/mL) in RPMI 1640 medium at 37°C for 60 - 120 minutes. Cells were passed through sieves of 100 µm and 40 µm mesh size and washed with RPMI 1640 medium. The percentage of viable cells was determined in a Neubauer-hemocytometer using trypan blue exclusion. Aliquots of the cells were frozen down, and stored in liquid nitrogen.
(§3) The clonogenic assay test was carried out in 96 well plate format. For each test a frozen aliquot of tumor cells prepared from tumor xenografts was thawed and assay plates were prepared as follows: each test well contained 3 layers of equal volume, 2 layers of semi-solid medium (bottom and top layer), and one layer of medium supernatant, with or without test compound. The bottom layer consisted of 0.05 mL/well Iscove's Modified Dulbecco's Medium (Invitrogen), supplemented with 20% (v/v) fetal calf serum (Sigma), 0.01% (w/v) gentamicin (Invitrogen) and 0.75% (w/v) agar (BD Biosciences). Tumor cells were added to 0.05 mL of the same culture medium supplemented with 0.4% (w/v) agar and plated onto the bottom layer. After 24 h, test compounds were added after serial dilution in DMSO and transfer in cell culture medium, and left on the cells for the duration of the experiment (continuous exposure, 0.05 mL drug overlay). Every dish included six untreated control wells and drug-treated groups in duplicate at 10 concentrations. Cultures were incubated at 37 °C and 7.5% CO2 in a humidified atmosphere for 8 to 13 days and monitored closely for colony growth using an inverted microscope. Within this period, ex vivo tumor growth lead to the formation of colonies with a diameter of >50 µm. At the time of maximum colony formation, counts were performed with an automatic image analysis system. 24 h prior to evaluation, vital colonies were stained with a sterile aqueous solution of 2-(4-iodophenyl)-3-(4-nitrophenyl)-5-phenyltetrazolium chloride (1 mg/mL, 100 µL/well). Sigmoidal concentration-response curves were fitted to the data points obtained for each tumor model using 4 parameter non-linear curve fit (Oncotest Warehouse Software). IC50 values are reported as relative IC50 values, being the concentration of test compound that give a response (inhibition of colony formation/viability) half way between the top and bottom plateau of the sigmoidal concentration-response curve (inflection point of the curve), or as absolute IC50 values, being the concentration of test compound at the intersection of the concentration-response curves with T/C = 50%. For calculation of mean IC50 values the geometric mean was used. Results are presented as mean graph plots or heat maps (individual IC50 values relative to the geometric mean IC50 value) over all cell lines as tested.

RXF 616 = settings: RXF 616, Renal; for IC50: Homo sapiens
Protocol: as §1, §2, §3

PAXF 2005 = settings: PAXF 2005, Pancreas; for IC50: Homo sapiens
Protocol: as §1, §2, §3

BXF 1218 = settings: BXF 1218, Bladder; for IC50: Homo sapiens
Protocol: as §1, §2, §3

GXA 3023 = settings: GXA 3023, Asian Gastric; for IC50: Homo sapiens
Protocol: as §1, §2, §3

CXF 676 = settings: CXF 676, Colorectal; for IC50: Homo sapiens
Protocol: as §1, §2, §3

LXFA 297 = settings: LXFA 297, Lung Adeno; for IC50: Homo sapiens
Protocol: as §1, §2, §3

PAXF 2045 = settings: PAXF 2045, Pancreas; for IC50: Homo sapiens
Protocol: as §1, §2, §3

PAXF 1998 = settings: PAXF 1998, Pancreas; for IC50: Homo sapiens
Protocol: as §1, §2, §3

PAXF 546 = settings: PAXF 546, Pancreas; for IC50: Homo sapiens, PAXF546
Protocol: as §1, §2, §3

BXF 1258 = settings: BXF 1258, Bladder; for IC50: Homo sapiens
Protocol: as §1, §2, §3

PXF 537 = settings: PXF 537, Pleuramesothelioma; for IC50: Homo sapiens
Protocol: as §1, §2, §3

Compound: O[C@H](c1cc(-c2ccc(Cl)cc2)nc2ccccc12)[C@@H]1CCCCN1 [S1, (R)-(2-(4-chlorophenyl)quinolin-4-yl)((S)-piperidin-2-yl)methanol]
- IC50 (SXFS 117; read-out: abs. IC50): 8.55 µM
- IC50 (SXFS 117; read-out: rel. IC50): 8.58 µM
- b (bottom plateau of concentration-effect curve) (SXFS 117): 4
- t (top plateau of concentration-effect curve) (SXFS 117): 91
- IC50 (RXF 616; read-out: abs. IC50): 8.81 µM
- IC50 (RXF 616; read-out: rel. IC50): 8.77 µM
- b (bottom plateau of concentration-effect curve) (RXF 616): 17
- t (top plateau of concentration-effect curve) (RXF 616): 89
- IC50 (PAXF 2005; read-out: abs. IC50): 9.16 µM
- IC50 (PAXF 2005; read-out: rel. IC50): 9.06 µM
- b (bottom plateau of concentration-effect curve) (PAXF 2005): 11
- t (top plateau of concentration-effect curve) (PAXF 2005): 106
- b (bottom plateau of concentration-effect curve) (BXF 1218): 15
- t (top plateau of concentration-effect curve) (BXF 1218): 100
- IC50 (BXF 1218; read-out: abs. IC50): 6.16 µM
- IC50 (BXF 1218; read-out: rel. IC50): 6.02 µM
- b (bottom plateau of concentration-effect curve) (GXA 3023): 30
- t (top plateau of concentration-effect curve) (GXA 3023): 90
- IC50 (GXA 3023; read-out: abs. IC50): 5.26 µM
- IC50 (GXA 3023; read-out: rel. IC50): 5.02 µM
- b (bottom plateau of concentration-effect curve) (CXF 676): 19
- t (top plateau of concentration-effect curve) (CXF 676): 105
- IC50 (CXF 676; read-out: abs. IC50): 8.92 µM
- IC50 (CXF 676; read-out: rel. IC50): 8.78 µM
- IC50 (LXFA 297; read-out: abs. IC50): 8.58 µM
- IC50 (LXFA 297; read-out: rel. IC50): 8.45 µM
- b (bottom plateau of concentration-effect curve) (LXFA 297): 24
- t (top plateau of concentration-effect curve) (LXFA 297): 100
- IC50 (PAXF 2045; read-out: abs. IC50): 8.14 µM
- IC50 (PAXF 2045; read-out: rel. IC50): 7.03 µM
- b (bottom plateau of concentration-effect curve) (PAXF 2045): 22
- t (top plateau of concentration-effect curve) (PAXF 2045): 95
- IC50 (PAXF 1998; read-out: abs. IC50): 8.89 µM
- IC50 (PAXF 1998; read-out: rel. IC50): 8.54 µM
- b (bottom plateau of concentration-effect curve) (PAXF 1998): 38
- t (top plateau of concentration-effect curve) (PAXF 1998): 104
- IC50 (PAXF 546; read-out: abs. IC50): 9.22 µM
- IC50 (PAXF 546; read-out: rel. IC50): 9.07 µM
- b (bottom plateau of concentration-effect curve) (PAXF 546): 25
- t (top plateau of concentration-effect curve) (PAXF 546): 96
- b (bottom plateau of concentration-effect curve) (BXF 1258): 44
- t (top plateau of concentration-effect curve) (BXF 1258): 103
- IC50 (BXF 1258; read-out: abs. IC50): 7.47 µM
- IC50 (BXF 1258; read-out: rel. IC50): 2.54 µM
- IC50 (PXF 537; read-out: abs. IC50): 8.67 µM
- IC50 (PXF 537; read-out: rel. IC50): 8.63 µM
- b (bottom plateau of concentration-effect curve) (PXF 537): 24
- t (top plateau of concentration-effect curve) (PXF 537): 80
